The target in the test is T1, human mAChR M4 (Homo sapiens, UniProt P08173).
T1 construct: expressed in transfected cells; host or cells: CHO-K1 (American Type Culture Collection), stably expressing hM4 and Gqi5
T1 sequence (P08173 1-479): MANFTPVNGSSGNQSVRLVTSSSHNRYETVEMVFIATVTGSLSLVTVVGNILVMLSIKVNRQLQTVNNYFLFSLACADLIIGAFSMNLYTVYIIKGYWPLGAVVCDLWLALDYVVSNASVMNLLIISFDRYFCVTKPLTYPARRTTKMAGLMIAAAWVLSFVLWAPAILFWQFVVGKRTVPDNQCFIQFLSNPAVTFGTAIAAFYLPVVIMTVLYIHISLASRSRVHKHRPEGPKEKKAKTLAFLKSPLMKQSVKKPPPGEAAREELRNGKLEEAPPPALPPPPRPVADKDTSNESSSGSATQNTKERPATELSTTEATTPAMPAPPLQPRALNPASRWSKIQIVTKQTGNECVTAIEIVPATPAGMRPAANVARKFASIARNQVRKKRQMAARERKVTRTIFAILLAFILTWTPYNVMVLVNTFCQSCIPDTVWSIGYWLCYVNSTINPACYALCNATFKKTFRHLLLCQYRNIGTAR
The test is described as follows: mAChR M4 cell-based functional assay: calcium mobilization (Fluo-4, FDSS), potentiation of EC20 acetylcholine response in hM4-Gqi5 CHO-K1 cells. The settings on record: human M4; for Emax at 30 µM: CHO-K1, % ACh maximum at 30 μM; for EC50: potentiation of EC20 acetylcholine response, calcium mobilization. The essentials:
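CHO-K1 cells stably co-expressing human M4 and chimeric Gqi5, loaded with Fluo-4 AM (50 min, 37 °C). Compounds in 11-point 1:3 series added first; EC20 acetylcholine added at 144 s and again at 230 s. Calcium read on FDSS at 1 Hz; EC50 and Emax from four-parameter logistic fit of potentiated EC20 response.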
In general terms: Calcium flux is commonly read through the fluorescence of an indicator in the cells.

For 25 compounds, Emax and EC50 results are on record in patent publication US20250101041A1, “POSITIVE ALLOSTERIC MODULATORS OF THE MUSCARINIC ACETYLCHOLINE RECEPTOR M4” (Vanderbilt University, priority 2022, published 2025).

Consider `Cc1cc(=O)n2nc(N3CCc4ncc(-c5cnccc5C)cc4C3)c(C)cc2n1` [Compound 1-214, 2,8-dimethyl-7-(3-(4-methylpyridin-3-yl)-7,8-dihydro-1,6-naphthyridin-6(5H)-yl)-4H-pyrimido[1,2-b] pyridazin-4-one], for which the Emax (usually the size of the effect at its maximum, as opposed to the concentration needed) at 30 µM stood at 82% and the EC50 – broadly, the concentration needed to bring the measured effect to its halfway point – was 139 nM.

With `Cc1cc2nccc(=O)n2nc1N1CCc2ncc(Nc3cc(F)cc(C#N)c3)cc2C1` [Compound 2-104, 3-fluoro-5-((6-(8-methyl-4-oxo-4H-pyrimido[1,2-b]pyridazin-7-yl)-5,6,7,8-tetrahydro-1,6-naphthyridin-3-yl)amino)benzonitrile], the Emax at 30 µM came to 85% and the EC50 worked out at 46 nM.

On to `Cc1c(N2CCc3ncc(-c4ccc(F)nc4)cc3C2)nn2c(=O)ccnc2c1C` [Compound 1-87, 7-(3-(6-Fluoropyridin-3-yl)-7,8-dihydro-1,6-naphthyridin-6(5H)-yl)-8,9-dimethyl-4H-pyrimido[1,2-b]pyridazin-4-one], for which the Emax at 30 µM was determined as 82% and the EC50 came out at 128 nM.

For the compound `COc1ccc(-c2cnc3c(c2)CN(c2nn4c(=O)cc(C)nc4cc2C)CC3)cn1` [Compound 1-71, 7-(3-(6-methoxypyridin-3-yl)-7,8-dihydro-1,6-naphthyridin-6(5H)-yl)-2,8-dimethyl-4H-pyrimido[1,2-b]pyridazin-4-one], the Emax at 30 µM came to 90% and the EC50 came out at 145 nM.

Take `Cc1cc2nccc(=O)n2nc1N1CCc2ncc(N3CCOC(c4ccccc4F)C3)cc2C1` (centres unmarked) [Compound 2-59, 7-(3-(2-(2-fluorophenyl)morpholino)-7,8-dihydro-1,6-naphthyridin-6(5H)-yl)-8-methyl-4H-pyrimido[1,2-b]pyridazin-4-one]: the Emax at 30 µM came out at 74% and the EC50 was 268 nM.

Take `Cc1cc(=O)n2nc(N3CCc4ncc(-c5cc(F)cc(F)c5F)cc4C3)c(C)cc2n1` [Compound 1-253, 2,8-dimethyl-7-(3-(2,3,5-trifluorophenyl)-7,8-dihydro-1,6-naphthyridin-6(5H)-yl)-4H-pyrimido[1,2-b] pyridazin-4-one]: the Emax at 30 µM stood at 54% and the EC50 worked out at 2330 nM.

Take `Cc1cc2nccc(=O)n2nc1N1CCc2ncc(-c3ccnn3C(C)C)cc2C1` [Compound 1-396, 7-(3-(1-isopropyl-1H-pyrazol-5-yl)-7,8-dihydro-1,6-naphthyridin-6(5H)-yl)-8-methyl-4H-pyrimido[1,2-b]pyridazin-4-one]: the Emax at 30 µM was 60% and the EC50 was 597 nM.

For `Cc1cc(=O)n2nc(N3CCc4ncc(-c5cncnc5)cc4C3)c(C)cc2n1` [Compound 1-286, 2,8-dimethyl-7-(3-(pyrimidin-5-yl)-7,8-dihydro-1,6-naphthyridin-6(5H)-yl)-4H-pyrimido[1,2-b]pyridazin-4-one], the Emax at 30 µM worked out at 68% and the EC50 came to 8720 nM.

Take `Cc1ccc(-c2cnc3c(c2)CN(c2nn4c(=O)cc(C(F)F)nc4c(C)c2C)CC3)c(C)c1` [Compound 1-164, 2-(difluoromethyl)-7-(3-(2,4-dimethylphenyl)-7,8-dihydro-1,6-naphthyridin-6(5H)-yl)-8,9-dimethyl-4H-pyrimido[1,2-b]pyridazin-4-one]: the Emax at 30 µM worked out at 69% and the EC50 turned out to be 640 nM.

Take `Cc1cc2nc(C)c(C)c(=O)n2nc1N1CCc2ncc(C(F)(F)F)cc2C1` [Compound 1-25, 2,3,8-trimethyl-7-(3-(trifluoromethyl)-7,8-dihydro-1,6-naphthyridin-6(5H)-yl)-4H-pyrimido[1,2-b]pyridazin-4-one]: the Emax at 30 µM stood at 81% and the EC50 turned out to be 254 nM.

Consider `Cc1ccc(-c2cnc3c(c2)CN(c2nn4c(=O)cc(C(F)(F)F)nc4c(C)c2C)CC3)cn1` [Compound 1-84, 8,9-dimethyl-7-(3-(6-methylpyridin-3-yl)-7,8-dihydro-1,6-naphthyridin-6(5H)-yl)-2-(trifluoromethyl)-4H-pyrimido[1,2-b]pyridazin-4-one], for which the Emax at 30 µM was 101% and the EC50 turned out to be 149 nM.

Regarding `Cc1cc(=O)n2nc(N3CCc4ncc(-c5cc(F)ncc5C)cc4C3)c(C)cc2n1` [Compound 1-238, 7-(3-(2-fluoro-5-methylpyridin-4-yl)-7,8-dihydro-1,6-naphthyridin-6(5H)-yl)-2,8-dimethyl-4H-pyrimido[1,2-b]pyridazin-4-one], the Emax at 30 µM was found to be 92% and the EC50 was 711 nM.

For `Cc1cc2nccc(=O)n2nc1N1CCc2ncc(-c3ccc(C4CC4)nc3)cc2C1` [Compound 1-67, 7-(3-(6-cyclopropylpyridin-3-yl)-7,8-dihydro-1,6-naphthyridin-6(5H)-yl)-8-methyl-4H-pyrimido[1,2-b]pyridazin-4-one], the Emax at 30 µM was 80% and the EC50 is 328 nM.

Regarding `Cc1cc(=O)n2nc(N3CCc4ncc(-c5ccccc5C5CC5)cc4C3)c(C)c(C)c2n1` [Compound 1-248, 7-(3-(2-cyclopropylphenyl)-7,8-dihydro-1,6-naphthyridin-6(5H)-yl)-2,8,9-trimethyl-4H-pyrimido[1,2-b]pyridazin-4-one], the Emax at 30 µM was found to be 80% and the EC50 is 852 nM.

Turning to `COC1CCN(c2cnc3c(c2)CN(c2nn4c(=O)cc(C)nc4c(C)c2C)CC3)CC1` [Compound 2-45, 7-(3-(4-methoxypiperidin-1-yl)-7,8-dihydro-1,6-naphthyridin-6(5H)-yl)-2,8,9-trimethyl-4H-pyrimido[1,2-b]pyridazin-4-one], the Emax at 30 µM stood at 66% and the EC50 was found to be 827 nM.

As for `COc1ccccc1Nc1cnc2c(c1)CN(c1nn3c(=O)ccnc3cc1C)CC2` [Compound 2-62, 7-(3-((2-methoxyphenyl)amino)-7,8-dihydro-1,6-naphthyridin-6(5H)-yl)-8-methyl-4H-pyrimido[1,2-b]pyridazin-4-one], the Emax at 30 µM came to 87% and the EC50 stood at 221 nM.

Turning to `Cc1cc2nccc(=O)n2nc1N1CCc2ncc(-c3ccc(Cl)nn3)cc2C1` [Compound 1-334, 7-(3-(6-chloropyridazin-3-yl)-7,8-dihydro-1,6-naphthyridin-6(5H)-yl)-8-methyl-4H-pyrimido [1,2-b]pyridazin-4-one], the Emax at 30 µM stood at 45% and the EC50 was 1230 nM.

Take `Cc1cc(=O)n2nc(N3CCc4ncc(-c5ccc(C(F)(F)F)nc5)cc4C3)c(C)cc2n1` [Compound 1-73, 2,8-dimethyl-7-(3-(6-(trifluoromethyl)pyridin-3-yl)-7,8-dihydro-1,6-naphthyridin-6(5H)-yl)-4H-pyrimido[1,2-b]pyridazin-4-one]: the Emax at 30 µM was found to be 77% and the EC50 was determined as 457 nM.

In the case of `Cc1cc(=O)n2nc(N3CCc4ncc(-c5cccnc5)cc4C3)c(C)cc2n1` [Compound 1-290, 2,8-dimethyl-7-(3-(pyridin-3-yl)-7,8-dihydro-1,6-naphthyridin-6(5H)-yl)-4H-pyrimido[1,2-b]pyridazin-4-one], the Emax at 30 µM stood at 90% and the EC50 worked out at 375 nM.

With `Cc1cc(=O)n2nc(N3CCc4ncc(-c5ccc(F)nc5)cc4C3)c(C)cc2n1` [Compound 1-212, 7-(3-(6-fluoropyridin-3-yl)-7,8-dihydro-1,6-naphthyridin-6(5H)-yl)-2,8-dimethyl-4H-pyrimido[1,2-b]pyridazin-4-one], the Emax at 30 µM was determined as 83% and the EC50 was 867 nM.

For the compound `Cc1c(N2CCc3ncc(N4CCOC(C)(C)C4)cc3C2)nn2c(=O)cc(C(F)F)nc2c1C` [Compound 2-40, 2-(difluoromethyl)-7-(3-(2,2-dimethylmorpholino)-7,8-dihydro-1,6-naphthyridin-6(5H)-yl)-8,9-dimethyl-4H-pyrimido[1,2-b]pyridazin-4-one], the Emax at 30 µM worked out at 90% and the EC50 was 29 nM.

Regarding `Cc1cc(=O)n2nc(N3CCc4ncc(-c5cnccc5C)cc4C3)c(C)c(C)c2n1` [Compound 1-117, 2,8,9-trimethyl-7-(3-(4-methylpyridin-3-yl)-7,8-dihydro-1,6-naphthyridin-6(5H)-yl)-4H-pyrimido[1,2-b]pyridazin-4-one], the Emax at 30 µM turned out to be 90% and the EC50 was 198 nM.

In the case of `Cc1c(N2CCc3ncc(N4CCC(C)(C)C4=O)cc3C2)nn2c(=O)ccnc2c1C` [Compound 2-148, 7-(3-(3,3-dimethyl-2-oxopyrrolidin-1-yl)-7,8-dihydro-1,6-naphthyridin-6(5H)-yl)-8,9-dimethyl-4H-pyrimido[1,2-b]pyridazin-4-one], the Emax at 30 µM came to 86% and the EC50 stood at 1030 nM.

Turning to `Cc1c(N2CCc3ncc(-c4ccnnc4)cc3C2)nn2c(=O)ccnc2c1C` [Compound 1-141, 8,9-dimethyl-7-(3-(pyridazin-4-yl)-7,8-dihydro-1,6-naphthyridin-6(5H)-yl)-4H-pyrimido[1,2-b]pyridazin-4-one], the Emax at 30 µM worked out at 96% and the EC50 was 410 nM.

In the case of `Cc1cc2nccc(=O)n2nc1N1CCc2ncc(-c3ccc(=O)n(C)c3)cc2C1` [Compound 1-49, 8-methyl-7-(3-(1-methyl-6-oxo-1,6-dihydropyridin-3-yl)-7,8-dihydro-1,6-naphthyridin-6(5H)-yl)-4H-pyrimido[1,2-b]pyridazin-4-one], the Emax at 30 µM came to 98% and the EC50 was determined as 2340 nM.
